Measured values taken from PubChem BioAssay AID1963854 (Molecular Pharmacology Branch, DTP, NCI, 2024).

Test system: 186277-243-T-J2-PDC complex spheroid viability
Experiment: Anticancer human tumor 186277-243-T-J2-PDC patient-derived colon adenocarcinoma cell line growth inhibition [POLQ]
Settings: for IC50: curve of first compound; for viability, T/C: stronger effect = lower value; active means viability on the fitted dose curve at most 10% of control; inactive means the rest
In short: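 Growth inhibition in 3D: complex spheroids (tumor PDC, HUVEC, MSC) treated with POLQ inhibitor combinations; where Cmax unknown, highest tested concentration 10 microM, except SN-38 at 1 microM.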

[1] = second compound 0.0316 µM, first compound 0.0316 µM
[2] = second compound 0.0316 µM, first compound 0.1 µM
[3] = second compound 0.0316 µM, first compound 0.316 µM
[4] = second compound 0.0316 µM, first compound 1 µM
[5] = second compound 0.0316 µM, first compound 3.16 µM
[6] = second compound 0.0316 µM, first compound 10 µM
[7] = second compound 0.1 µM, first compound 0.0316 µM
[8] = second compound 0.1 µM, first compound 0.1 µM
[9] = second compound 0.1 µM, first compound 0.316 µM
[10] = second compound 0.1 µM, first compound 1 µM
[11] = second compound 0.1 µM, first compound 3.16 µM
[12] = second compound 0.1 µM, first compound 10 µM
[13] = second compound 0.316 µM, first compound 0.0316 µM
[14] = second compound 0.316 µM, first compound 0.1 µM
[15] = second compound 0.316 µM, first compound 0.316 µM
[16] = second compound 0.316 µM, first compound 1 µM
[17] = second compound 0.316 µM, first compound 3.16 µM
[18] = second compound 0.316 µM, first compound 10 µM
[19] = second compound 1 µM, first compound 0.0316 µM
[20] = second compound 1 µM, first compound 0.1 µM
[21] = second compound 1 µM, first compound 0.316 µM
[22] = second compound 1 µM, first compound 1 µM
[23] = second compound 1 µM, first compound 3.16 µM
[24] = second compound 1 µM, first compound 10 µM
[25] = second compound 3.16 µM, first compound 0.0316 µM
[26] = second compound 3.16 µM, first compound 0.1 µM
[27] = second compound 3.16 µM, first compound 0.316 µM
[28] = second compound 3.16 µM, first compound 1 µM
[29] = second compound 3.16 µM, first compound 3.16 µM
[30] = second compound 3.16 µM, first compound 10 µM
[31] = second compound 10 µM, first compound 0.0316 µM
[32] = second compound 10 µM, first compound 0.1 µM
[33] = second compound 10 µM, first compound 0.316 µM
[34] = second compound 10 µM, first compound 1 µM
[35] = second compound 10 µM, first compound 3.16 µM
[36] = second compound 10 µM, first compound 10 µM
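Further: spheroids exposed to compounds for seven days.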
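Wherever viability, T/C is given: 100% = DMSO vehicle control viability.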

C=CC(=O)N1CCN(c2nc(=O)n(-c3c(C)ccnc3C(C)C)c3nc(-c4c(O)cccc4F)c(F)cc23)C(C)C1 (stereo unspecified) + Nc1ccc(C#CCN(C(=O)Cc2ncc(C(F)(F)F)cc2C(F)(F)F)c2ccc(F)cc2)nn1
> 10 µM: IC50 (second compound 0.0316 µM) | IC50 (second compound 0.1 µM) | IC50 (second compound 0.316 µM) | IC50 (second compound 1 µM) | IC50 (second compound 3.16 µM) | IC50 (second compound 10 µM)
inactive: viability, T/C [1] 98.7% | viability, T/C [2] 84.2% | viability, T/C [3] 96.2% | viability, T/C [4] 83.5% | viability, T/C [5] 115% | viability, T/C [6] 101% | viability, T/C [7] 93.1% | viability, T/C [8] 94.5% | viability, T/C [9] 102% | viability, T/C [10] 103% | viability, T/C [11] 95.1% | viability, T/C [12] 112% | viability, T/C [13] 91% | viability, T/C [14] 106% | viability, T/C [15] 100% | viability, T/C [16] 96.1% | viability, T/C [17] 92.6% | viability, T/C [18] 100% | viability, T/C [19] 91.8% | viability, T/C [20] 101% | viability, T/C [21] 90% | viability, T/C [22] 87.1% | viability, T/C [23] 96% | viability, T/C [24] 104% | viability, T/C [25] 97.6% | viability, T/C [26] 92.3% | viability, T/C [27] 97.7% | viability, T/C [28] 102% | viability, T/C [29] 99.3% | viability, T/C [30] 101% | viability, T/C [31] 112% | viability, T/C [32] 99.9% | viability, T/C [33] 107% | viability, T/C [34] 101% | viability, T/C [35] 95.9% | viability, T/C [36] 105%

C=CC(=O)N1CCN(c2nc(=O)n(-c3c(C)ccnc3C(C)C)c3nc(-c4c(O)cccc4F)c(F)cc23)C(C)C1 (stereo unspecified) + COC1C(OC(N)=O)C(O)C(Oc2ccc3c(O)c(NC(=O)c4ccc(O)c(CC=C(C)C)c4)c(=O)oc3c2C)OC1(C)C
> 10 µM: IC50 (second compound 0.0316 µM) | IC50 (second compound 0.1 µM) | IC50 (second compound 0.316 µM) | IC50 (second compound 1 µM) | IC50 (second compound 3.16 µM) | IC50 (second compound 10 µM)
inactive: viability, T/C [1] 94% | viability, T/C [2] 88.7% | viability, T/C [3] 111% | viability, T/C [4] 88.2% | viability, T/C [5] 102% | viability, T/C [6] 85.9% | viability, T/C [7] 90.2% | viability, T/C [8] 91.8% | viability, T/C [9] 98.3% | viability, T/C [10] 90.2% | viability, T/C [11] 87% | viability, T/C [12] 97% | viability, T/C [13] 98% | viability, T/C [14] 102% | viability, T/C [15] 91.5% | viability, T/C [16] 104% | viability, T/C [17] 110% | viability, T/C [18] 98.1% | viability, T/C [19] 97.3% | viability, T/C [20] 93.9% | viability, T/C [21] 101% | viability, T/C [22] 90.7% | viability, T/C [23] 96.6% | viability, T/C [24] 97.7% | viability, T/C [25] 93.5% | viability, T/C [26] 94.5% | viability, T/C [27] 99.3% | viability, T/C [28] 101% | viability, T/C [29] 87.5% | viability, T/C [30] 87.3% | viability, T/C [31] 92.9% | viability, T/C [32] 104% | viability, T/C [33] 92.3% | viability, T/C [34] 84.5% | viability, T/C [35] 116% | viability, T/C [36] 83.3%

COc1cccc(OCCCN)c1-c1cc(Nc2cnc(C#N)cn2)n[nH]1 + Nc1ccc(C#CCN(C(=O)Cc2ncc(C(F)(F)F)cc2C(F)(F)F)c2ccc(F)cc2)nn1
active: viability, T/C [7] 9.59% | viability, T/C [8] 9.13% | viability, T/C [9] 8.61% | viability, T/C [10] 9.39% | viability, T/C [13] 9.62% | viability, T/C [14] 8.58% | viability, T/C [15] 10.1% | viability, T/C [16] 9.81% | viability, T/C [19] 9.81% | viability, T/C [20] 8.9% | viability, T/C [21] 10.1% | viability, T/C [22] 9.12% | viability, T/C [25] 9.29% | viability, T/C [26] 8.63% | viability, T/C [27] 10.8% | viability, T/C [28] 10.4% | viability, T/C (second compound 10 µM, first compound 0.01 µM) 8.38% | viability, T/C [31] 9.28% | viability, T/C [32] 8.09% | viability, T/C [33] 9.97% | viability, T/C [34] 9.55%
inactive: viability, T/C (second compound 0.0316 µM, first compound 0.00316 µM) 47% | viability, T/C (second compound 0.0316 µM, first compound 0.01 µM) 13.1% | viability, T/C [1] 10.3% | viability, T/C [2] 9.69% | viability, T/C [3] 9.94% | viability, T/C [4] 10.9% | viability, T/C (second compound 0.1 µM, first compound 0.00316 µM) 38.6% | viability, T/C (second compound 0.1 µM, first compound 0.01 µM) 13.4% | viability, T/C (second compound 0.316 µM, first compound 0.00316 µM) 37.4% | viability, T/C (second compound 0.316 µM, first compound 0.01 µM) 13.8% | viability, T/C (second compound 1 µM, first compound 0.00316 µM) 37.2% | viability, T/C (second compound 1 µM, first compound 0.01 µM) 11.3% | viability, T/C (second compound 3.16 µM, first compound 0.00316 µM) 27.5% | viability, T/C (second compound 3.16 µM, first compound 0.01 µM) 10.3% | viability, T/C (second compound 10 µM, first compound 0.00316 µM) 17.6%
< 0.00316 µM: IC50 (second compound 0.0316 µM) | IC50 (second compound 0.1 µM) | IC50 (second compound 0.316 µM) | IC50 (second compound 1 µM) | IC50 (second compound 3.16 µM) | IC50 (second compound 10 µM)
